# Source: PubChem BioAssay AID288 (DTP/NCI, 2004)
# Where “and” joins values, the source holds several entries; their conditions need not be identical. Equal values may be shown once. Records with an inconclusive call do not appear.
# Tested on: BDF1 mice, M5076 sarcoma s.c., survival/tumor T/C
# Experiment: NCI In Vivo Anticancer Drug Screen. Data for tumor model Sarcoma M5076 (subcutaneous) in B6D2F1 (BDF1) mice
# Experimental: The antitumor activity of compounds was measured in mice bearing transplantable tumors. Survival or tumor size were measured and the results are expressed as the measurement made in the treated group (T) divided by the measurement made in the vehicle treated control group (C). The tumor model used in this assay is Sarcoma M5076 (subcutaneous) in B6D2F1 (BDF1) mice
# [1] = endpoint: median survival time, dose: 50.0 mg/kg/injection, schedule: Q01DX009 (ip), vehicle: saline with Tween-80, higher = longer survival
# [2] = endpoint: median survival time, dose: 100.0 mg/kg/injection, schedule: Q01DX009 (ip), vehicle: saline with Tween-80, higher = longer survival
# [3] = endpoint: median survival time, dose: 200.0 mg/kg/injection, schedule: Q01DX009 (ip), vehicle: saline with Tween-80, higher = longer survival
smiles,measurement,setting,value
COc1cccc(/C=N/NP(=S)(Oc2ccc(C(C)(C)C)cc2)Oc2ccc(C(C)(C)C)cc2)c1OC,T/C,[1],94 % of control
same,T/C,[2],94 % of control
same,T/C,[3],100 % of control
same,T/C,"endpoint: median tumor weight (est.), dose: 50.0 mg/kg/injection, schedule: Q01DX009 (ip), vehicle: saline with Tween-80, higher = larger tumour",122 % of control
same,T/C,"endpoint: median tumor weight (est.), dose: 100.0 mg/kg/injection, schedule: Q01DX009 (ip), vehicle: saline with Tween-80, higher = larger tumour",100 % of control
same,T/C,"endpoint: median tumor weight (est.), dose: 200.0 mg/kg/injection, schedule: Q01DX009 (ip), vehicle: saline with Tween-80, higher = larger tumour",74 % of control
CC(C)CC(NC(=O)C(N)C(C)C)C(=O)NC(CCCCN)C(=O)NC(C(=O)O)C1CC(Cl)=NO1 (stereo unspecified),T/C,"endpoint: median survival time, dose: 1.6 mg/kg/injection, schedule: Q01DX010 (ip), vehicle: saline, higher = longer survival",103 % of control and 106 % of control
same,T/C,"endpoint: median survival time, dose: 25.6 mg/kg/injection, schedule: Q01DX010 (ip), vehicle: saline, higher = longer survival",173 % of control
same,T/C,"endpoint: median survival time, dose: 51.2 mg/kg/injection, schedule: Q01DX010 (ip), vehicle: saline, higher = longer survival",166 % of control
O=C[C@@H](CO)O[C@H](C=O)n1cnc2c(=O)[nH]cnc21,T/C,"endpoint: mean tumor weight, dose: 75.0 mg/kg/injection, schedule: Q02DX011 (ip), vehicle: saline, higher = larger tumour",93 % of control
same,T/C,"endpoint: mean tumor weight, dose: 150.0 mg/kg/injection, schedule: Q02DX011 (ip), vehicle: saline, higher = larger tumour",105 % of control
same,T/C,"endpoint: mean tumor weight, dose: 300.0 mg/kg/injection, schedule: Q02DX011 (ip), vehicle: saline, higher = larger tumour",54 % of control
same,T/C,"endpoint: median tumor weight (est.), dose: 75.0 mg/kg/injection, schedule: Q02DX011 (ip), vehicle: saline, higher = larger tumour",376 % of control
same,T/C,"endpoint: median tumor weight (est.), dose: 150.0 mg/kg/injection, schedule: Q02DX011 (ip), vehicle: saline, higher = larger tumour",385 % of control
same,T/C,"endpoint: median tumor weight (est.), dose: 300.0 mg/kg/injection, schedule: Q02DX011 (ip), vehicle: saline, higher = larger tumour",266 % of control
CCOC(=O)CCC1(C(=O)OC)C(=O)CCCCCCCC1C(=O)OC (stereo unspecified),T/C,[1],100 % of control
same,T/C,[2],100 % of control
same,T/C,[3],115 % of control
C1CN1c1nc(N2CC2)nc(N2CC2)n1,T/C,"endpoint: mean tumor weight, dose: 0.1 mg/kg/injection, schedule: Q02DX011 (ip), vehicle: Klucel (hydroxypropylcellulose) (HPC), higher = larger tumour",76 % of control
same,T/C,"endpoint: mean tumor weight, dose: 0.2 mg/kg/injection, schedule: Q02DX011 (ip), vehicle: Klucel (hydroxypropylcellulose) (HPC), higher = larger tumour",25 % of control
same,T/C,"endpoint: mean tumor weight, dose: 0.4 mg/kg/injection, schedule: Q02DX011 (ip), vehicle: Klucel (hydroxypropylcellulose) (HPC), higher = larger tumour",8 % of control
same,T/C,"endpoint: median survival time, dose: 0.06 mg/kg/injection, schedule: Q02DX011 (ip), vehicle: saline, higher = longer survival",100 % of control
same,T/C,"endpoint: median survival time, dose: 0.13 mg/kg/injection, schedule: Q02DX011 (ip), vehicle: saline, higher = longer survival",113 % of control
same,T/C,"endpoint: median survival time, dose: 0.25 mg/kg/injection, schedule: Q02DX011 (ip), vehicle: saline, higher = longer survival",100 % of control
same,T/C,"endpoint: median survival time, dose: 1.0 mg/kg/injection, schedule: Q02DX011 (ip), vehicle: saline, higher = longer survival",191 % of control
C1CCC2OCCOCCOCCOCCOC2C1 (stereo unspecified),T/C,"endpoint: median survival time, dose: 50.0 mg/kg/injection, schedule: Q01DX009 (ip), vehicle: saline, higher = longer survival",111 % of control
same,T/C,"endpoint: median survival time, dose: 100.0 mg/kg/injection, schedule: Q01DX009 (ip), vehicle: saline, higher = longer survival",113 % of control
same,T/C,"endpoint: median tumor weight (est.), dose: 50.0 mg/kg/injection, schedule: Q01DX009 (ip), vehicle: saline, higher = larger tumour",66 % of control
same,T/C,"endpoint: median tumor weight (est.), dose: 100.0 mg/kg/injection, schedule: Q01DX009 (ip), vehicle: saline, higher = larger tumour",75 % of control
CC1(CO)C(O)CCC2(C)C1CCC1CC3CC12CCC3(O)CO (stereo unspecified),T/C,"endpoint: median survival time, dose: 23.3 mg/kg/injection, schedule: Q01DX017 (sc), vehicle: Klucel (hydroxypropylcellulose) (HPC), higher = longer survival",93 % of control
same,T/C,"endpoint: median survival time, dose: 38.9 mg/kg/injection, schedule: Q01DX017 (oral), vehicle: Klucel (hydroxypropylcellulose) (HPC), higher = longer survival",93 % of control
same,T/C,"endpoint: median survival time, dose: 64.8 mg/kg/injection, schedule: Q01DX017 (ip), vehicle: Klucel (hydroxypropylcellulose) (HPC), higher = longer survival",124 % of control
same,T/C,"endpoint: median survival time, dose: 64.8 mg/kg/injection, schedule: Q01DX017 (oral), vehicle: Klucel (hydroxypropylcellulose) (HPC), higher = longer survival",102 % of control and 109 % of control
same,T/C,"endpoint: median survival time, dose: 64.8 mg/kg/injection, schedule: Q01DX017 (sc), vehicle: Klucel (hydroxypropylcellulose) (HPC), higher = longer survival",163 % of control
same,T/C,"endpoint: median survival time, dose: 77.8 mg/kg/injection, schedule: Q04DX005 (ip), vehicle: Klucel (hydroxypropylcellulose) (HPC), higher = longer survival",103 % of control
same,T/C,"endpoint: median survival time, dose: 83.7 mg/kg/injection, schedule: Q01DX017 (oral), vehicle: Klucel (hydroxypropylcellulose) (HPC), higher = longer survival",116 % of control
same,T/C,"endpoint: median survival time, dose: 100.0 mg/kg/injection, schedule: Q03HX003 (sc), vehicle: Klucel (hydroxypropylcellulose) (HPC), higher = longer survival",106 % of control
same,T/C,"endpoint: median survival time, dose: 100.0 mg/kg/injection, schedule: Q03HX003 (sc), vehicle: saline, higher = longer survival",102 % of control
same,T/C,"endpoint: median survival time, dose: 108.0 mg/kg/injection, schedule: Q01DX017 (ip), vehicle: Klucel (hydroxypropylcellulose) (HPC), higher = longer survival",116 % of control
same,T/C,"endpoint: median survival time, dose: 108.0 mg/kg/injection, schedule: Q01DX017 (oral), vehicle: Klucel (hydroxypropylcellulose) (HPC), higher = longer survival",100 % of control and 118 % of control
same,T/C,"endpoint: median survival time, dose: 108.0 mg/kg/injection, schedule: Q01DX017 (sc), vehicle: Klucel (hydroxypropylcellulose) (HPC), higher = longer survival",113 % of control and 121 % of control
same,T/C,"endpoint: median survival time, dose: 130.0 mg/kg/injection, schedule: Q04DX005 (ip), vehicle: Klucel (hydroxypropylcellulose) (HPC), higher = longer survival",103 % of control
same,T/C,"endpoint: median survival time, dose: 139.0 mg/kg/injection, schedule: Q01DX017 (oral), vehicle: Klucel (hydroxypropylcellulose) (HPC), higher = longer survival",118 % of control
same,T/C,"endpoint: median survival time, dose: 180.0 mg/kg/injection, schedule: Q01DX017 (oral), vehicle: Klucel (hydroxypropylcellulose) (HPC), higher = longer survival",116 % of control
same,T/C,"endpoint: median survival time, dose: 200.0 mg/kg/injection, schedule: Q03HX003 (sc), vehicle: Klucel (hydroxypropylcellulose) (HPC), higher = longer survival",98 % of control
same,T/C,"endpoint: median survival time, dose: 200.0 mg/kg/injection, schedule: Q03HX003 (sc), vehicle: saline, higher = longer survival",100 % of control
same,T/C,"endpoint: median survival time, dose: 216.0 mg/kg/injection, schedule: Q04DX005 (ip), vehicle: Klucel (hydroxypropylcellulose) (HPC), higher = longer survival",104 % of control
same,T/C,"endpoint: median survival time, dose: 300.0 mg/kg/injection, schedule: Q01DX017 (oral), vehicle: Klucel (hydroxypropylcellulose) (HPC), higher = longer survival",159 % of control
same,T/C,"endpoint: median survival time, dose: 360.0 mg/kg/injection, schedule: Q04DX005 (ip), vehicle: Klucel (hydroxypropylcellulose) (HPC), higher = longer survival",106 % of control
same,T/C,"endpoint: median survival time, dose: 600.0 mg/kg/injection, schedule: Q04DX005 (ip), vehicle: Klucel (hydroxypropylcellulose) (HPC), higher = longer survival",109 % of control
CC1CCC(NC(=O)N(CCCl)N=O)CC1 (stereo unspecified),T/C,"endpoint: median survival time, dose: 2.5 mg/kg/injection, schedule: Q04DX009 (ip), vehicle: saline with Tween-80, higher = longer survival",109 % of control
same,T/C,"endpoint: median survival time, dose: 5.0 mg/kg/injection, schedule: Q02DX011 (ip), vehicle: Klucel (hydroxypropylcellulose) (HPC), higher = longer survival",296 % of control
same,T/C,"endpoint: median survival time, dose: 5.0 mg/kg/injection, schedule: Q02DX033 (ip), vehicle: saline with Tween-80, higher = longer survival",230 % of control
same,T/C,"endpoint: median survival time, dose: 5.0 mg/kg/injection, schedule: Q04DX005 (ip), vehicle: other, higher = longer survival",191 % of control
same,T/C,"endpoint: median survival time, dose: 5.0 mg/kg/injection, schedule: Q04DX009 (ip), vehicle: saline with Tween-80, higher = longer survival",150 % of control
same,T/C,"endpoint: median survival time, dose: 10.0 mg/kg/injection, schedule: Q02DX033 (ip), vehicle: saline with Tween-80, higher = longer survival",252 % of control
same,T/C,"endpoint: median survival time, dose: 10.0 mg/kg/injection, schedule: Q04DX005 (ip), vehicle: other, higher = longer survival",233 % of control
same,T/C,"endpoint: median survival time, dose: 10.0 mg/kg/injection, schedule: Q04DX009 (ip), vehicle: saline with Tween-80, higher = longer survival",298 % of control
same,T/C,"endpoint: median survival time, dose: 20.0 mg/kg/injection, schedule: Q01DX003 (ip), vehicle: saline with Tween-80, higher = longer survival",160 % of control
same,T/C,"endpoint: median survival time, dose: 20.0 mg/kg/injection, schedule: Q04DX009 (ip), vehicle: saline with Tween-80, higher = longer survival",320 % of control
same,T/C,"endpoint: median survival time, dose: 30.0 mg/kg/injection, schedule: Q01DX001 (ip), vehicle: saline with Tween-80, higher = longer survival",154 % of control and 171 % of control
same,T/C,"endpoint: median survival time, dose: 30.0 mg/kg/injection, schedule: Q01DX001 (oral), vehicle: saline with Tween-80, higher = longer survival",160 % of control and 191 % of control
same,T/C,"endpoint: median survival time, dose: 40.0 mg/kg/injection, schedule: Q01DX001 (oral), vehicle: saline with Tween-80, higher = longer survival",179 % of control and 237 % of control (2×)
same,T/C,"endpoint: median survival time, dose: 50.0 mg/kg/injection, schedule: Q01DX001 (ip), vehicle: saline with Tween-80, higher = longer survival",153 % of control and 226 % of control (2×)
same,T/C,"endpoint: median survival time, dose: 50.0 mg/kg/injection, schedule: Q01DX001 (oral), vehicle: saline with Tween-80, higher = longer survival",194 % of control and 229 % of control (2×)
same,T/C,"endpoint: median survival time, dose: 60.0 mg/kg/injection, schedule: Q01DX001 (oral), vehicle: saline with Tween-80, higher = longer survival",229 % of control (2×) and 233 % of control
